The text below walks through data of patent US20260125645A1, “METHODS AND PHARMACOLOGICAL AGENTS FOR INCREASING EXPANSION, ENGRAFTMENT OR IMMUNE OUTPUT OF HUMAN HEMATOPOIETIC STEM CELLS IN TRANSPLANTATION AND DISEASE SETTINGS” (VALORISATION HSJ, LIMITED PARTNERSHIP, priority 2022, published 2026).

Assay [1] relates to cord-blood CD34^+ cells (HSC). The assay is described as follows: Human immune engraftment (% hCD45) in irradiated NSG mice injected with the progeny of ex vivo cultured cord-blood CD34+ cells. As for the experimental part: The progeny of 7,500 cord-blood CD34+ cells was cultured under modified air-liquid interface (ALI) conditions for 10 days and injected in irradiated adult NSG mice. Cells were cultured in cytokine-containing (SCF, TPO, FLT-3L) serum-free media (StemSpan™ SFEM, LDL) containing UM729 (40 nM) with or without the addition of aryl hydrocarbon receptor (AhR) receptor antagonist CH-223191 (1 μM). Human immune reconstitution, expressed by the percentage of human CD45 (hCD45) over total CD45, was monitored in peripheral blood after 7, 14 and 25 weeks post-transplantation by flow cytometry. Mean percentage of human CD45 cell engraftment for 2 mice per condition is shown. […]
Since the ultimate aim is to improve the expansion of engraftable human HSC, the validation methods largely rely on the measurement of immune reconstitution, both short-term and long-term, after transplantation in a humanized mice model. Briefly, NSG mice (Jackson Laboratories, strain 005557) were sublethally irradiated at 2Gy 4 to 24 hours prior to CD34^+ cells intravenous (IV) injection. All harvested cells from 1 culture well were injected into one mouse. Wells from all conditions started with equal numbers of CD34^+ cells from the same source/donor. Therefore, all the progeny of a culture setting was injected into mice. Peripheral blood of humanized mice was harvested every 5 weeks, and human engraftment and immune reconstitution were analyzed by flow cytometry. The earliest point where human engraftment in mice was measured was after 5 weeks and the latest after 35 weeks. The impact of the ALI culture system on HSC engraftment capacity was assessed using base media purchased from STEMCELL Technologies (StemSpan SFEM). A dramatic effect of the ALI methodology on the engraftment of cord-blood HSC was observed relative to the published manual fed-batch culture methodology^4, which includes SCF, TPO, FLT3L and UM171 (FIG. 4).

The next assay deals with Cord-blood CD34^+ cells. Briefly: Ex vivo expansion of the CD34+ population from cord-blood CD34+ cells, counted by flow cytometry. The settings on record: for expansion in CD34^+ population: UM171 40 nM, 10 days, SCF/TPO/FLT-3L StemSpan SFEM II. It is filed as cell-based, human. As for the experimental part:
Cord-blood CD34^+ cells were cultured under manual fed-batch (FB) or modified air-liquid interface (ALI) conditions for 10 days. Cells were cultured in cytokine-containing (SCF, TPO, FLT-3L) serum-free media (StemSpan™ SFEM II) where UM171 (40 nM) was added. CD34^+ cells total number was assessed by flow cytometry using […] beads (BD).
The progeny of 7,500 cord-blood CD34^+ cells was cultured under manual fed-batch (FB) conditions for 6 days and injected in irradiated adult NSG mice. Cells were cultured in cytokine-containing (SCF, TPO, FLT-3L) serum-free media (StemSpan SFEM II) where UM729 (500 nM) or a HTR1F-specific agonist LY573144 (250 nM final concentration) was added. The progeny of an equal number of CD34^+ cells cultured in the same conditions but without UM729 or LY573144 from the same source was used to determine baseline expansion (threshold indicated by the dotted line) and engraftment. Expansion fold, compared to untreated condition, of the CD34^+ population after 6 days of ex vivo culture is shown in the left panel. Human immune reconstitution was monitored in peripheral blood (middle panel) and bone marrow (right panel) at week 25 post-transplantation as described above. Mean percentage of human CD45 cell engraftment for 2 mice per condition is shown.
An experimental setup was designed where oxygen exchange in the media would be maximized, while adopting the principles of fed-batch cultures (FB) in which medium is renewed and in sufficient quantity to provide nutrients while diluting cell waste. […] In doing so, the maximum of cells was placed directly at the air-liquid interface so that gas exchanges are more efficient. Briefly, HSC were enriched based on CD34 expression marker, from cord-blood units using the Miltenyi CD34 MicroBead Kit UltraPure according to manufacturer's instruction. Purity was determined by flow cytometry using monoclonal CD34-PE antibodies (Clone 581, BD Pharmingen, 555822). […]
Using this culture method, the expansion of the stem cell population (defined as CD34^+ cells) in the culture wells after 10 days was first assessed. […]
For orientation: Flow cytometry measures light scatter and fluorescence of single cells or particles in a stream.

The subject of assay [2] is human CB CD34+ (HSC engraftment). The assay is described as follows: In vivo administration of HTR1F agonist to NSG mice humanized with uncultured cord-blood CD34+ cells; human chimerism by flow cytometry. The settings on record: 0.3 mg (10 mg/kg) intraperitoneally at 6 h, 24 h, 48 h. As for the experimental part: 38,000 human CB CD34+ were injected intravenously into irradiated NSG mice (n=8, 16 hrs after irradiation). Starting from 6 hours post-transplantation, half of the mice (n=4) received, by intraperitoneal injection, 0.3 mg of Lasmiditan diluted in 0.02% DMSO in PBS (drug), for a total of 4 doses in regular intervals (6 h, 24 h, 48 h and 72 h) after human HSC injection. The second half (control) received I.P. injection of vehicle (0.02% DMSO in PBS) (n=4; vehicle). Human chimerism was assessed on peripheral blood until 19 weeks post-transplantation as described above, after which time mice were sacrificed and spleen and bone marrow were analyzed. SEM are depicted.
Lasmiditan, purchased from AdooQ Bioscience (product number A14198), was dissolved in DMSO and ethanol solution. […] Purity and viability were assessed by flow cytometry using the following staining: CD34-APC (Biolegend 343510), CD19-PE (Biolegend, 302208), CD3-PE-Cy7 (Biolegend, 344816), CD45-APC-Cy7 (Biolegend, 368516), 7-AAD (BD Biosciences, 559925), 1 μL AnnV-FITC (Biolegend, 640906). […] The dose was determined based on previous work with LY344864 (used ex vivo above, FIG. 10) in kidney injury recovery studies^16 and is consistent with the dosage of Reyvow® (Lasmiditan) for the treatment of migraine. […]

Setting [3] is: progeny of FB culture with LY573144 250 nM for 6 days, 25 weeks after injection.

Take `CN(C)[C@@H]1CCc2[nH]c3ccc(NC(=O)c4ccc(F)cc4)cc3c2C1.Cl` [LY344864, N-[(3R)-3-(Dimethylamino)-2,3,4,9-tetrahydro-1H-carbazol-6-yl]-4-fluorobenzamide hydrochloride]: the “peripheral blood engraftment (% hCD45)” value in assay [1] (LY344864 500 nM in StemSpan SFEM II with SCF/TPO/FLT-3L, 10 days, specifically ALI culture, vs media alone) was “greatly improved the peripheral blood engraftment”.

For `CN1CCC(C(=O)c2cccc(NC(=O)c3c(F)cc(F)cc3F)n2)CC1` [LY573144, 2,4,6-Trifluoro-N-[6-[(1-methyl-4-piperidinyl)carbonyl]-2-pyridinyl]benzamide], in assay [1] (setting [3]), the “percentage of hCD45^+ cells in the blood” value is reported as “higher percentages” and the “percentage of hCD45^+ cells in the bone marrow” value is reported as “higher percentages”. Besides, the “expansion of the CD34^+ population compared to untreated condition” value with Cord-blood CD34^+ cells (LY573144 250 nM, FB culture, 6 days) is “two-fold”. Moreover, the “presence of human immune cells (hCD45^+) in tissues of treated animals” value in assay [2] (72 h, analysed up to 19 weeks) is “found in blood, spleen and bone marrow”. The “reconstitution of the immune compartment (human chimerism)” value in assay [2] (72 h after 38,000 CD34+ cells, followed to 19 weeks, vs vehicle) is given as “more robust reconstitution of the immune compartment”.

Regarding `Cn1nnc(-c2ccc3c(c2)[nH]c2nc(Cc4ccccc4)nc(NC4CCC(N)CC4)c23)n1` (stereo not shown) [UM171], the “expansion in CD34^+ population” value in the assay on Cord-blood CD34^+ cells (ALI culture) and in the assay on Cord-blood CD34^+ cells (fed-batch (FB) culture) was approximately 55 fold each time.

Regarding `Cc1ccccc1N=Nc1ccc(NC(=O)c2ccnn2C)c(C)c1` [CH-223191], in assay [1] (CH-223191 1 μM added to ALI culture containing UM729, 10 days, blood at 7, 14 and 25 weeks, vs without CH-223191), the “engraftment capacity of cultured HSC (% hCD45 in peripheral blood)” value is listed as “did not further increase the engraftment capacity”.

Regarding `N[C@@H](Cc1cc(I)c(Oc2ccc(O)c(I)c2)c(I)c1)C(=O)O` [T3, triiodothyronine], the “engraftment of HSC in humanized mice (% hCD45+ lymphocytes in peripheral blood)” value in assay [1] (T3 45 ng/mL in SCF/TPO/FLT3L StemSpan SFEM containing UM171, FB culture 10 days, vs UM171 alone or with CH-223191) is given as “increased the engraftment of HSC”.
